# How the values were obtained:
# Influenza A virus [1] = experiment: Antiviral activity against Influenza A virus A/PR/8/34 (H1N1) infected in MDCK cells assessed as reduction in virus-induced cytopathic effect incubated for 5 days by CCK8 based microplate spectrophotometric analysis; format: functional, organism-based; conditions: 120 h; for EC90: time 5 day
# [2] = Protein binding in human plasma assessed as unbound fraction at 400 uM incubated for 4 hrs by LC-MS/MS analysis; format: ADME, cell-free
# [3] = Volume of distribution at steady state in BALB/c mouse at 2 mg/kg, iv measured after 24 hrs by LC-MS/MS analysis; format: ADME, organism-based; conditions: in vivo, read-out: Vdss
# [4] = Clearance in BALB/c mouse at 2 mg/kg, iv measured after 24 hrs by LC-MS/MS analysis; format: ADME, organism-based; conditions: in vivo
# [5] = Metabolic stability in human liver microsomes assessed as intrinsic clearance at 1 uM measured upto 60 mins in presence of NADPH by LC-MS/MS analysis; format: ADME, Microsome; conditions: 1 h
# Influenza A virus [6] = experiment: Antiviral activity against Influenza A virus A/California/2/2014 (H3N2) infected in MDCK cells assessed as reduction in virus-induced cytopathic effect incubated for 5 days by CCK8 based microplate spectrophotometric analysis; format: functional, organism-based; conditions: 120 h; for EC90: time 5 day
# [7] = Inhibition of influenza A virus A/WSN/33 (H1N1) RNA polymerase transfected in HEK293T/17 cells incubated for 24 hrs by dual luciferase reporter gene assay; format: cell-based; conditions: HEK293T/17, 24 h
# Influenza B virus [8] = experiment: Antiviral activity against Influenza B virus B/Florida/78/2015 infected in MDCK cells assessed as reduction in virus-induced cytopathic effect incubated for 5 days by CCK8 based microplate spectrophotometric analysis; format: functional, organism-based; conditions: B/Florida/78/2015, MDCK, 120 h; for EC90: time 5 day
# [9] = Half-life in BALB/c mouse at 2 mg/kg, iv measured after 24 hrs by LC-MS/MS analysis; format: ADME, organism-based; conditions: in vivo
# [10] = AUC (0 to last) in BALB/c mouse at 2 mg/kg, iv measured after 24 hrs by LC-MS/MS analysis; format: ADME, organism-based; conditions: in vivo
# Influenza B virus [11] = experiment: Antiviral activity against Influenza B virus B/Lee/40 infected in MDCK cells assessed as reduction in virus-induced cytopathic effect incubated for 5 days by CCK8 based microplate spectrophotometric analysis; format: functional, organism-based; conditions: B/Lee/40, MDCK, 120 h; for EC90: time 5 day
# [12] = Protein binding in mouse plasma assessed as unbound fraction at 400 uM incubated for 4 hrs by LC-MS/MS analysis; format: ADME, cell-free
# Influenza A virus [13] = experiment: Antiviral activity against Influenza A virus A/California/07/2009 (H1N1) infected in MDCK cells assessed as reduction in virus-induced cytopathic effect incubated for 5 days by CCK8 based microplate spectrophotometric analysis; format: functional, organism-based; conditions: 120 h; for EC90: time 5 day
# MOLT-4 = experiment: Cytotoxicity against human MOLT-4 cells incubated for 3 days by CellTiter-Glo assay; format: functional; conditions: MOLT-4, 72 h, time 3 day
# [14] = AUC (0 to last) in cynomolgus monkey at 0.25 mg/kg, iv measured after 24 hrs by LC-MS/MS analysis; format: ADME, organism-based, Macaca fascicularis; conditions: in vivo
# [15] = Clearance in cynomolgus monkey at 0.25 mg/kg, iv measured after 24 hrs by LC-MS/MS analysis; format: ADME, organism-based, Macaca fascicularis; conditions: in vivo
# HEK293 = experiment: Cytotoxicity against HEK293 cells incubated for 3 days by CellTiter-Glo assay; format: functional; conditions: Homo sapiens, HEK293, 72 h; time 3 day
# H1-HeLa = experiment: Cytotoxicity against human H1-HeLa cells incubated for 3 days by CellTiter-Glo assay; format: functional; conditions: 72 h, time 3 day
# HEp-2 = experiment: Cytotoxicity against human HEp-2 cells incubated for 3 days by CellTiter-Glo assay; format: functional; conditions: HEp-2, 72 h, time 3 day
# MRC5 = experiment: Cytotoxicity against human MRC5 cells incubated for 3 days by CellTiter-Glo assay; format: functional; conditions: MRC5, 72 h, time 3 day
# [16] = Metabolic stability in cynomolgus monkey liver microsomes assessed as intrinsic clearance at 1 uM measured upto 60 mins in presence of NADPH by LC-MS/MS analysis; format: ADME, Macaca fascicularis, Microsome; conditions: 1 h
# COLO 205 = experiment: Cytotoxicity against human COLO 205 cells incubated for 3 days by CellTiter-Glo assay; format: functional; conditions: COLO 205, 72 h, time 3 day
# [17] = Clearance in Beagle dog at 0.25 mg/kg, iv measured after 24 hrs by LC-MS/MS analysis; format: ADME, organism-based, Canis lupus familiaris; conditions: in vivo
# [18] = Metabolic stability in dog liver microsomes assessed as intrinsic clearance at 1 uM measured upto 60 mins in presence of NADPH by LC-MS/MS analysis; format: ADME, Canis lupus familiaris, Microsome; conditions: 1 h
# [19] = Selectivity index, ratio of CC50 for human MOLT-4 cells to EC50 for antiviral activity against Influenza B virus B/Lee/40 infected in MDCK cells; format: functional
# [20] = Protein binding in cynomolgus monkey plasma assessed as unbound fraction at 400 uM incubated for 4 hrs by LC-MS/MS analysis; format: ADME, cell-free, Macaca fascicularis
# [21] = Half-life in cynomolgus monkey at 0.25 mg/kg, iv measured after 24 hrs by LC-MS/MS analysis; format: ADME, organism-based, Macaca fascicularis; conditions: in vivo
# Influenza B virus [22] = experiment: Potency index, ratio of baloxavir EC50 to test compound EC50 for antiviral activity against Influenza B virus B/Florida/78/2015 infected in MDCK cells assessed as reduction in virus-induced cytopathic effect incubated for 5 days by CCK8 based microplate spectrophotometric analysis; format: functional; conditions: time 5 day
# [23] = Volume of distribution at steady state in Beagle dog at 0.25 mg/kg, iv measured after 24 hrs by LC-MS/MS analysis; format: ADME, organism-based, Canis lupus familiaris; conditions: in vivo, read-out: Vdss
# [24] = Protein binding in dog plasma assessed as unbound fraction at 400 uM incubated for 4 hrs by LC-MS/MS analysis; format: ADME, cell-free, Canis lupus familiaris
# [25] = AUC (0 to last) in Beagle dog at 0.25 mg/kg, iv measured after 24 hrs by LC-MS/MS analysis; format: ADME, organism-based, Canis lupus familiaris; conditions: in vivo
# HepG2 = experiment: Cytotoxicity against human HepG2 cells incubated for 3 days by CellTiter-Glo assay; format: functional; conditions: HepG2, 72 h, time 3 day
# A-375 = experiment: Cytotoxicity against human A-375 cells incubated for 3 days by CellTiter-Glo assay; format: functional; conditions: A-375, 72 h, time 3 day
# CCRF-CEM = experiment: Cytotoxicity against human CCRF-CEM cells incubated for 3 days by CellTiter-Glo assay; format: functional; conditions: 72 h, time 3 day
# [26] = Half-life in Beagle dog at 0.25 mg/kg, iv measured after 24 hrs by LC-MS/MS analysis; format: ADME, organism-based, Canis lupus familiaris; conditions: in vivo
# [27] = Metabolic stability in mouse liver microsomes assessed as intrinsic clearance at 1 uM measured upto 60 mins in presence of NADPH by LC-MS/MS analysis; format: ADME, Microsome; conditions: 1 h
# [28] = Volume of distribution at steady state in cynomolgus monkey at 0.25 mg/kg, iv measured after 24 hrs by LC-MS/MS analysis; format: ADME, organism-based, Macaca fascicularis; conditions: in vivo, read-out: Vdss
# Influenza B virus [29] = experiment: Potency index, ratio of baloxavir EC50 to test compound EC50 for antiviral activity against Influenza B virus B/Lee/40 infected in MDCK cells assessed as reduction in virus-induced cytopathic effect incubated for 5 days by CCK8 based microplate spectrophotometric analysis; format: functional; conditions: time 5 day
compound,measurement,setting,value
CN1C(=O)c2c(O)c(=O)ccn2N2[C@H](c3ccccc3C#N)c3cc(F)c(F)cc3OCC[C@@H]12 (racemic),EC50,Influenza A virus [1],> 500 nM
same,EC90,Influenza A virus [1],> 500 nM
CC(C)N1C(=O)c2c(O)c(=O)ccn2N2[C@H](c3ccccc3)c3ccccc3OCC[C@@H]12 (racemic),EC50,Influenza A virus [1],53 nM
same,EC90,Influenza A virus [1],105 nM
CN1C(=O)c2c(O)c(=O)ccn2N2[C@@H](c3ccccc3)c3ccccc3OCC[C@H]12,EC50,Influenza A virus [1],> 500 nM
same,EC90,Influenza A virus [1],> 500 nM
O=C1c2c(O)c(=O)ccn2N2[C@H](c3ccccc3)c3ccccc3OCC[C@H]2N1C1CCC1 (racemic),EC50,Influenza A virus [1],65 nM
same,EC90,Influenza A virus [1],120 nM
O=C1c2c(O)c(=O)ccn2N([C@@H]2c3ccccc3SCc3c2ccc(F)c3F)[C@@H]2COCCN12 [BALOXAVIR],"fraction unbound at 4 h, 400 µM",[2],0.083
same,Vd,[3],14 L/kg
same,clearance,[4],61.6 mL/min/kg
same,CLint,[5],< 8.6 µL/min/mg
same,EC50,Influenza A virus [6],1.2 nM
same,EC90,Influenza A virus [6],1.8 nM
same,EC50,[7],5.46 nM
same,EC50,Influenza B virus [8],4.8 nM
same,EC90,Influenza B virus [8],7.4 nM
same,half-life,[9],3.9 h
same,AUC(0-t) at 24 h,[10],1.35 µM·h
same,EC50,Influenza A virus [1],2.1 nM
same,EC90,Influenza A virus [1],4.6 nM
same,EC50,Influenza B virus [11],21 nM
same,EC90,Influenza B virus [11],43 nM
same,"fraction unbound at 4 h, 400 µM",[12],0.153
same,EC50,Influenza A virus [13],1.4 nM
same,EC90,Influenza A virus [13],3 nM
CN1C(=O)c2c(O)c(=O)ccn2N2[C@H](c3ccccc3)c3cc(F)c(F)cc3OCC[C@@H]12,CC50,MOLT-4,4130 nM
same,AUC(0-t) at 24 h,[14],0.458 µM·h
same,clearance,[15],20.8 mL/min/kg
same,"fraction unbound at 4 h, 400 µM",[2],0.103
same,CC50,HEK293,20300 nM
same,CC50,H1-HeLa,9770 nM
same,Vd,[3],4.41 L/kg
same,clearance,[4],57.4 mL/min/kg
same,CLint,[5],< 8.6 µL/min/mg
same,CC50,HEp-2,12400 nM
same,CC50,MRC5,20000 nM
same,CLH,[16],< 0.013 mL/min/kg
same,CC50,COLO 205,7040 nM
same,clearance,[17],20.8 mL/min/kg
same,CLH,[18],0.0138 mL/min/kg
same,EC50,Influenza A virus [6],1.2 nM
same,EC90,Influenza A virus [6],3.2 nM
same,Ratio CC50/EC50,[19],>485
same,EC50,[7],12.3 nM
same,"fraction unbound at 4 h, 400 µM",[20],0.382
same,half-life,[21],2.2 h
same,Ratio EC50,Influenza B virus [22],3
same,EC50,Influenza B virus [8],0.9 nM
same,EC90,Influenza B virus [8],1.6 nM
same,Vd,[23],3.74 L/kg
same,"fraction unbound at 4 h, 400 µM",[24],0.218
same,half-life,[9],1.2 h
same,AUC(0-t) at 24 h,[10],1.32 µM·h
same,AUC(0-t) at 24 h,[25],0.576 µM·h
same,CC50,HepG2,5190 nM
same,CC50,A-375,13300 nM
same,CC50,CCRF-CEM,6480 nM
same,EC50,Influenza A virus [1],7.2 nM
same,EC90,Influenza A virus [1],12 nM
same,EC50,Influenza B virus [11],8.5 nM
same,EC90,Influenza B virus [11],16 nM
same,half-life,[26],2.6 h
same,CLH,[27],0.1106 mL/min/kg
same,"fraction unbound at 4 h, 400 µM",[12],0.122
same,Vd,[28],3.68 L/kg
same,EC50,Influenza A virus [13],2.6 nM
same,EC90,Influenza A virus [13],4.2 nM
same,Ratio EC50,Influenza B virus [29],3
CN1C(=O)c2c(O)c(=O)ccn2N2C(c3ccccc3)c3ccccc3OCCC12 (racemic),EC50,Influenza A virus [1],> 1000 nM
same,EC90,Influenza A virus [1],> 1000 nM

# From ChEMBL document CHEMBL5528039, “Discovery of a Macrocyclic Influenza Cap-Dependent Endonuclease Inhibitor” (J Med Chem, 2024)
